Measurements as given in patent US9040707B2, “Bicyclic thiazoles as allosteric modulators of mGluR5 receptors” (Janssen Pharmaceutica NV, priority 2009, dated 2015).

Legend:
[1] = molecular target: T1, human mGluR5a receptor (Homo sapiens, UniProt P41594); experiment: Functional Assay 2: Ca2+ mobilization, HEK cells with human mGluR5a receptor (H10H cell line); type: cell-based; conditions: H10H cell line; for EC50: glutamate EC20; for Emax: HEK293, maximum average response at a single concentration, relative to glutamate ECMax
T1 construct: host or cells: HEK293A (monoclones H10H and H12H)
Experimental: Human mGluR5a cDNA in pCMV6-XL6 mammalian expression plasmid was purchased from OriGene Technologies, Inc. (catalogue number SC326357) and subcloned into pcDNA3.1(−). […] Monoclones were named for the species (“H” for human) plus the location on the plate (e.g. “10H”).
The following day, the growth medium was removed and the cells were washed with assay buffer containing 1× Hank's balanced salt solution (Invitrogen, Carlsbad, Calif.), 20 mM HEPES, 2.5 mM probenecid, pH 7.4 and left with 20 μL of this reagent. Following this step, the cells were loaded with calcium indicator dye, fluo-4 AM, to a final concentration of 2 μM and incubated for 40-45 min at 37° C. The dye solution was removed and replaced with assay buffer. Cell plates were held for 10-15 min at room temperature and were then loaded into the Functional Drug Screening System 6000 (FDSS 6000, Hamamatsu, Japan).
After establishment of a fluorescence baseline for about 3 seconds, the compounds of the present invention were added to the cells, and the response in cells was measured. 2.3 minutes later an EC20 concentration of the mGluR5 receptor agonist glutamate was added to the cells, and the response of the cells was measured for about 1.7 minutes. All test compounds were dissolved and diluted to a concentration of 10 mM in 100% DMSO and then serially diluted into assay buffer for a 2× stock solution in 0.6% DMSO; stock compounds were then added to the assay for a final DMSO concentration of 0.3% after the first addition to the assay well. Calcium fluorescence measures were recorded as fold over basal fluorescence; raw data was then normalized to the maximal response to glutamate.
The concentration-response curves of compounds of the present invention, obtained in the presence of EC20 of mGluR5 receptor agonist glutamate to determine positive allosteric modulation, were generated using Microsoft Excel with IDBS XLfit add-ins. The raw data file containing all time points was used as the data source in the analysis template. This was saved by the FDSS as a tab-delimitted text file. Data were normalized using a static ratio function (F/F0) for each measurement of the total 350 values per well divided by each well's initial value. […] This is sufficient time to capture the peak amplitude of the cellular calcium response. […] Each of the three values collected at each concentration of test compound were weighted evenly. […] These two methods are in good agreement for curves with a clear plateau at the high concentration range.

[2] = molecular target: T2, human mGluR5 receptor (Homo sapiens, UniProt P41594); experiment: Functional Assay 1: intracellular Ca2+ mobilization, positive allosteric modulation of glutamate EC20 response; type: cell-based; conditions: for EC50: human mGluR5 over-expressing HEK-293 cells, glutamate EC20 (~0.2 μM), updated value; for Emax: maximum % effect relative to glutamate ECMax
T2 construct: expressed in transfected cells; host or cells: HEK-293
T2 sequence (P41594 21-1180 isoform P41594-2 limits assumed): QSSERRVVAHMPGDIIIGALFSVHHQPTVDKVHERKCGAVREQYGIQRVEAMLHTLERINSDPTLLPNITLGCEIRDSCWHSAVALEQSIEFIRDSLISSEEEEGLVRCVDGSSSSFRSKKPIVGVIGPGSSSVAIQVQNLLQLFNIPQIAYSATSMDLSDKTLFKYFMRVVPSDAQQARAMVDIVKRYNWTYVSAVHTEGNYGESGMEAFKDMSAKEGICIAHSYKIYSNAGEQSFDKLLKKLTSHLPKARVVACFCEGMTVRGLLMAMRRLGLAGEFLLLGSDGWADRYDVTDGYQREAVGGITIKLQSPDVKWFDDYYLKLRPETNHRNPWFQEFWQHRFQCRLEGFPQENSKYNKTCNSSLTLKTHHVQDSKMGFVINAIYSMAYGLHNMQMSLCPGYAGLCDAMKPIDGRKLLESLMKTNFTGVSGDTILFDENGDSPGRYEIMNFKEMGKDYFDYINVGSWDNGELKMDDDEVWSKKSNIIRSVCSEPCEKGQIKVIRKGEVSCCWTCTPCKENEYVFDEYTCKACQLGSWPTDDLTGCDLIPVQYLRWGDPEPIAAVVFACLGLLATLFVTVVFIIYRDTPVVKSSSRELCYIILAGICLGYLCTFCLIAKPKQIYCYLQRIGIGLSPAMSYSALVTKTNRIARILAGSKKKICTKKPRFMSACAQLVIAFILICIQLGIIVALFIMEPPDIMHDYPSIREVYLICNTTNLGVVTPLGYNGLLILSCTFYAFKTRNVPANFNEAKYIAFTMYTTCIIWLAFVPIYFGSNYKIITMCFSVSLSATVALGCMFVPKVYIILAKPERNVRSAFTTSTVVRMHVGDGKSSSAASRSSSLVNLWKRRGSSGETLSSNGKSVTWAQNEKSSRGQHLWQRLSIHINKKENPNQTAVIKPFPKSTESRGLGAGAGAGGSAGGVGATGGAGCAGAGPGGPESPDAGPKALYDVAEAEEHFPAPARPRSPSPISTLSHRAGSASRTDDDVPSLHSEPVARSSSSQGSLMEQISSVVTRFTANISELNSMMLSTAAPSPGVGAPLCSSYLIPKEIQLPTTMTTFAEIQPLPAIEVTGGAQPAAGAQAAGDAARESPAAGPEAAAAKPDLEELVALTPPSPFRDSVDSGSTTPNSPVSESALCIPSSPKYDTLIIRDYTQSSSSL
Experimental: HEK-293 cells were stable transfected with human mGluR5a cDNA in expression vector pcDNA4/TO. For Assay 1, these human mGluR5 receptor over-expressing HEK-293 cells were grown at a density of 40,000 cells/well in PDL-coated 384-well plates. The following day, cells were preloaded with the calcium-sensing dye Fluo-4 AM and various concentrations of test compound were added in the absence of exogenous glutamate to test for direct agonist activity. Shortly (2.5 min) thereafter, an EC20 equivalent of glutamate (˜0.2 μM) was added. The fluorescence signal was monitored using a Hamamatsu Functional Drug Screening System (FDSS) fluorescence plate reader following the addition of compound alone (direct agonist response) and then the further addition of an EC20 of glutamate (positive allosteric modulation response). The pEC50 was defined as the negative log of the test compound concentration which produced an increase in the glutamate EC20-mediated response that was 50% of maximum. Individual amplitudes were expressed as % effect by multiplying each amplitude by 100 and then dividing the product by the mean of the amplitudes derived from the glutamate ECMax-treated wells. Emax values reported in this application are defined as the maximum % effect obtained in a concentration-response curve.

T1 sequence (P41594 21-1180 isoform P41594-2 limits assumed): as above

melting point | EC50 [1] | Emax [1] | EC50 [2] | Emax [2] | SMILES
112.9 °C | 0.158 µM | 25% | – | – | N#Cc1cccc(COc2nc3c(s2)C(=O)N(c2ccc(F)cc2F)CC3)c1 [Compound 20, 3-[[[5-(2,4-difluorophenyl)-4,5,6,7-tetrahydro-4-oxothiazolo[5,4-c]pyridin-2-yl]oxy]methyl]-benzonitrile]
95.2 to 97.2 °C | 0.331 µM | 54% | – | – | Cc1cccc(COc2nc3c(s2)C(=O)N(c2ccc(F)cc2F)CC3)c1 [Compound 21, 5-(2,4-difluorophenyl)-6,7-dihydro-2-[(3-methylphenyl)methoxy]-thiazolo[5,4-c]pyridin-4(5H)-one]
91 to 92.5 °C | 0.372 µM | 45% | – | – | O=C1c2sc(OCc3ccccc3F)nc2CCN1c1ccc(F)cc1 [Compound 22, 5-(4-fluorophenyl)-2-[(2-fluorophenyl)methoxy]-6,7-dihydro-thiazolo[5,4-c]pyridin-4(5H)-one]
104.3 to 107.2 °C | – | – | 0.955 µM | 54% | O=C1c2sc(OCc3ccc(F)cc3F)nc2CCN1c1ccc(F)cc1F [Compound 23, 5-(2,4-difluorophenyl)-2-[(2,4-difluorophenyl)methoxy]-6,7-dihydro-thiazolo[5,4-c]pyridin-4(5H)-one]
152.8 °C | 0.174 µM | 63% | – | – | O=C1c2sc(COc3cccc(F)c3)nc2CCN1c1ccc(F)cc1 [Compound 25, 2-[(3-fluorophenoxy)methyl]-5-(4-fluorophenyl)-6,7-dihydro-thiazolo[5,4-c]pyridin-4(5H)-one]
130 to 131.5 °C | – | – | 0.214 µM | 46% | O=C1c2sc(OCc3cccc(F)c3)nc2CCN1c1ccc(C(F)(F)F)cc1 [Compound 26, 2-[(3-fluorophenyl)methoxy]-6,7-dihydro-5-[4-(trifluoromethyl)phenyl]-thiazolo[5,4-c]pyridin-4(5H)-one]
268.9 to 284.1 °C | 0.0977 µM | 81% | – | – | O=C1c2sc(COc3ccccc3)nc2CCN1c1ccc(F)cc1F [Compound 29, 5-(2,4-difluorophenyl)-6,7-dihydro-2-(phenoxymethyl)-thiazolo[5,4-c]pyridin-4(5H)-one]
> 280 °C | 0.282 µM | 71% | – | – | O=C1c2sc(COc3ccccc3F)nc2CCN1c1ccc(F)cc1 [Compound 31, 2-[(2-fluorophenoxy)methyl]-5-(4-fluorophenyl)-6,7-dihydro-thiazolo[5,4-c]pyridin-4(5H)-one]
> 280 °C | 0.224 µM | 81% | – | – | O=C1c2sc(COc3ccc(F)cc3)nc2CCN1c1ccc(F)cc1F [Compound 32, 5-(2,4-difluorophenyl)-2-[(4-fluorophenoxy)methyl]-6,7-dihydro-thiazolo[5,4-c]pyridin-4(5H)-one]
98.4 to 99.6 °C | > 30.2 µM | 38% | – | – | C[C@@H](N1CCc2nc(COc3ccccc3F)sc2C1=O)C(C)(C)C [Compound 33, 2-[(2-fluorophenoxy)methyl]-6,7-dihydro-5-[(1R)-1,2,2-trimethylpropyl]-thiazolo[5,4-c]pyridin-4(5H)-one]
61.2 to 64.2 °C | 0.871 µM | 83% | – | – | COc1ccccc1N1CCc2nc(COc3cccc(F)c3)sc2C1=O [Compound 37, 2-[(3-fluorophenoxy)methyl]-6,7-dihydro-5-(2-methoxyphenyl)-thiazolo[5,4-c]pyridin-4(5H)-one]
105.9 °C | 1.07 µM | 70% | – | – | CN1CCCc2nc(COc3ccccc3)sc2C1=O [Compound 38, 5,6,7,8-tetrahydro-5-methyl-2-(phenoxymethyl)-4H-thiazolo[5,4-c]azepin-4-one]
292.6 to 302.9 °C | 0.209 µM | – | – | – | O=C1c2sc(COc3ccccc3)nc2CCN1CC1CC1 [Compound 39, 5-(cyclopropylmethyl)-6,7-dihydro-2-(phenoxymethyl)-thiazolo[5,4-c]pyridin-4(5H)-one]
243.9 to 245.7 °C | 1.55 µM | 39% | – | – | O=C1c2sc(COc3cccc(F)c3)nc2CCN1C1CC1 [Compound 40, 5-cyclopropyl-2-[(3-fluorophenoxy)methyl]-6,7-dihydro-thiazolo[5,4-c]pyridin-4(5H)-one]
275.4 to 277.8 °C | 0.224 µM | 66% | – | – | O=C1c2sc(COc3cccc(F)c3)nc2CCN1CC1CC1 [Compound 41, 5-(cyclopropylmethyl)-2-[(3-fluorophenoxy)methyl]-6,7-dihydro-thiazolo[5,4-c]pyridin-4(5H)-one]
85.3 to 87.1 °C | 1.1 µM | 67% | – | – | O=C1c2sc(COc3ccccc3F)nc2CCN1CC1CC1 [Compound 42, 5-(cyclopropylmethyl)-2-[(2-fluorophenoxy)methyl]-6,7-dihydro-thiazolo[5,4-c]pyridin-4(5H)-one]
254 to 259.1 °C | 0.759 µM | 59% | – | – | O=C1c2sc(COc3ccc(F)cc3)nc2CCN1CC1CC1 [Compound 43, 5-(cyclopropylmethyl)-2-[(4-fluorophenoxy)methyl]-6,7-dihydro-thiazolo[5,4-c]pyridin-4(5H)-one]
252.1 to 255.3 °C | 4.37 µM | 36% | – | – | O=C1c2sc(COc3ccccc3)nc2CCN1C1CC1 [Compound 44, 5-cyclopropyl-6,7-dihydro-2-(phenoxymethyl)-thiazolo[5,4-c]pyridin-4(5H)-one]
155.5 °C | 0.55 µM | 84% | – | – | Cc1cccc(N2CCc3nc(COc4ccccc4)sc3C2=O)n1 [Compound 46, 6,7-dihydro-5-(6-methyl-2-pyridinyl)-2-(phenoxymethyl)-thiazolo[5,4-c]pyridin-4(5H)-one]
185.8 to 186.8 °C | 0.295 µM | 56% | – | – | O=C1c2sc(COc3ccc(F)cc3)nc2CCN1c1ccc(F)cn1 [Compound 53, 2-[(4-fluorophenoxy)methyl]-5-(5-fluoro-2-pyridinyl)-6,7-dihydro-thiazolo[5,4-c]pyridin-4(5H)-one]
125.8 to 126.4 °C | 0.288 µM | 79% | – | – | O=C1c2sc(COc3cccc(F)c3)nc2CCN1c1ccc(F)cn1 [Compound 54, 2-[(3-fluorophenoxy)methyl]-5-(5-fluoro-2-pyridinyl)-6,7-dihydro-thiazolo[5,4-c]pyridin-4(5H)-one]
151.8 to 153 °C | 0.55 µM | 63% | – | – | O=C1c2sc(COc3ccccc3F)nc2CCN1c1ccc(F)cn1 [Compound 55, 2-[(2-fluorophenoxy)methyl]-5-(5-fluoro-2-pyridinyl)-6,7-dihydro-thiazolo[5,4-c]pyridin-4(5H)-one]
167.6 °C | 1.7 µM | 62% | – | – | O=C1c2sc(COc3ccccc3)nc2CCN1c1cncc(F)c1 [Compound 57, 5-(5-fluoro-3-pyridinyl)-6,7-dihydro-2-(phenoxymethyl)-thiazolo[5,4-c]pyridin-4(5H)-one]
100.1 to 105.2 °C | 0.195 µM | 76% | – | – | O=C1c2sc(COc3ccccc3F)nc2CCN1c1ccc(F)cc1F [Compound 59, 5-(2,4-difluorophenyl)-2-[(2-fluorophenoxy)methyl]-6,7-dihydro-thiazolo[5,4-c]pyridin-4(5H)-one]
235.8 to 240.2 °C | > 30.2 µM | 27% | – | – | O=C1c2sc(COc3ccccc3F)nc2CCN1C1CC1 [Compound 61, 5-cyclopropyl-2-[(2-fluorophenoxy)methyl]-6,7-dihydro-thiazolo[5,4-c]pyridin-4(5H)-one]
126.3 to 130.8 °C | > 10 µM | 51% | – | – | O=C1c2sc(COc3ccc(F)cc3)nc2CCN1C1CC1 [Compound 62, 5-cyclopropyl-2-[(4-fluorophenoxy)methyl]-6,7-dihydro-thiazolo[5,4-c]pyridin-4(5H)-one]
127 to 130.5 °C | > 30.2 µM | 16% | – | – | O=C1c2sc(OCc3cc(F)cc(F)c3)nc2CCN1c1ccc(F)cc1F [Compound 73, 5-(2,4-difluorophenyl)-2-[(3,5-difluorophenyl)methoxy]-6,7-dihydro-thiazolo[5,4-c]pyridin-4(5H)-one]
